Consider three substances from US6703020B1 (Board of Regents, The University of Texas System, priority 1999, dated 2004).

The subject of one data set is VEGFR2 (KDR/Flk-1). In words: ELISA of VEGF binding to VEGFR2-coated wells. Details: species or system mouse.
The next data set deals with NCI-H358 NSCLC. Description: In vivo tumor growth inhibition, newly implanted NCI-H358. Further details: species or system mouse. The method, then:
(§1) Nu/nu mice were injected subcutaneously with either 1×10^7 NCI-H358 NSCLC cells or 5×10^6 A673 rhabdomyosarcoma cells on day 0. […] The tumors were then measured twice per wk for a period of approximately six wk for the NCI-H358 bearing mice and four wk for the A673 bearing mice. Tumor volume was calculated according to the formula: volume=L×W×H, where L=length, W=width, H=height.

The next data set has as its system Human tumors (various). Description: Immunohistochemistry on frozen sections of human tumors. It is filed as binding. Further details: key: −, negative; +/−, very weak; 1+, weak; 2+, moderate; 3+, strong; 4+, very strong. The conditions noted are these: acetone fixed frozen sections; 2C3 and 12D7 at 20 μg/ml, others 5-10 μg/ml. The procedure: (§2) Tumors were snap frozen in liquid nitrogen and stored at −70° C. Frozen samples of tumor specimens from patients were obtained from the National Cancer Institute Cooperative Human Tissue Network (Southern Division, Birmingham, Ala.). Immununohistochemistry was performed as described by Burrows et al. (1995).
(§3) Tumors examined through immunohistochemistry were human tumors of various types from cancer patients, transplantable human tumor xenografts of various types grown in mice, guinea pig Line 10 tumor grown in guinea pig, and mouse 3LL tumor grown in mice (see legend to Table 3 for details).

Data set [1] has as its system A673 rhabdomyosarcoma and LS174T colon adenocarcinoma tumors. In words: Treatment of mice with established A673 and LS174T tumors. It is filed as in vivo, mouse.
For the next data set, the system named is A673 rhabdomyosarcoma. In words: In vivo tumor growth inhibition, newly implanted A673. Further details: species or system mouse. As to conditions: 100 μg i.p. 2 times per wk from day 1, nu/nu mice; controls approximately 1000 mm^3. The procedure: as §1
The next data set relates to KDR on ABAE cells. In words: 125I-VEGF binding studies on KDR expressing endothelial cells. It is filed as cell-based, bovine.
A further data set relates to NCI-H358 NSCLC tumors. Description: In vivo tumor therapy of established NCI-H358 xenografts. Details: species or system mouse. The procedure: (§4) Male nu/nu mice bearing subcutaneous NCI-H358 tumors or HT1080 fibrosarcoma 200-400 mm^3 in size were injected i.p. with test or control antibodies. The NCI-H358 bearing mice were treated with 100 μg of antibodies per injection three times a week during the first week and twice a week during the second and third week. The mice were then switched to 50 μg per injection every five days. The HT1080 bearing mice were treated with 100 μg of the indicated antibody or saline every other day throughout the duration of the study. In both studies, mice were sacrificed when their tumors reached 2500 mm^3 in size or earlier if tumors began to ulcerate.
Doses were 50-100 μg every 3-5 days. […] In addition to measuring mean tumor volume (FIG. 4), photographs of the mice from each treatment group were also taken to show the differences in tumor size and appearance at the end of the study.

In another data set the test system is HT1080 fibrosarcoma. In words: In vivo tumor therapy of established HT1080 xenografts. Details: species or system mouse. As to conditions: 100 μg every two days. The procedure: as §4
Data set [2] concerns NCI-H358 NSCLC and HT29 colon adenocarcinoma xenografts. In words: In vivo localization to human tumor xenografts in mice. Details: species or system mouse; key to Immunohistochemical Reactivity Heart / Immunohistochemical Reactivity Lung / Immunohistochemical Reactivity Liver / Immunohistochemical Reactivity Kidney / Immunohistochemical Reactivity Intestine / Immunohistochemical Reactivity Spleen / Immunohistochemical Reactivity Tumor: −, negative; +/−, very weak; 1+, weak; 2+, moderate; 3+, strong; 4+, very strong.
Description: Tumors were grown subcutaneously in immunocompromised mice (NCI-H358 NSCLC in nu/nu mice and HT29 colon adenocarcinoma in SCID mice) until the tumor volume was approximately 1 cm^3. 100 μg of unlabeled antibody for studies using SCID mice, or 100 μg of biotinylated antibody for studies using nude mice, was injected intravenously via a tail vein. Twenty four hours later, the mice were anesthetized, perfused with PBS, and tumor and organs including heart, lungs, liver, kidneys, intestines and spleen were collected and snap frozen in liquid nitrogen.
The tumor and organs from each mouse were sectioned on a cryostat and stained for antibody immunohistochemically as above, with the exception that sections from the nude mice were developed using peroxidase labeled streptavidin-biotin complex (Dako, Carpinteria, Calif.) and the sections from the SCID mice were developed using two peroxidase-conjugated secondary antibodies, a goat anti-mouse IgG+IgM followed by a rabbit anti-goat IgG.
100 μg of GV39M and 3E7 or isotype-matched control IgG were injected into SCID mice bearing HT29 human colonic adenocarcinomas. Twenty-four hours later, the mice were sacrificed, exsanguinated and the tumors and tissues were removed.

Data set [3] concerns the target T1, guinea pig VEGF in line 10 guinea pig tumor sections (Cavia porcellus, UniProt P26617).
T1 construct: from tissue; host or cells: frozen sections of line 10 hepatocellular carcinoma grown in strain 2 guinea pigs
T1 sequence (P26617 1-164): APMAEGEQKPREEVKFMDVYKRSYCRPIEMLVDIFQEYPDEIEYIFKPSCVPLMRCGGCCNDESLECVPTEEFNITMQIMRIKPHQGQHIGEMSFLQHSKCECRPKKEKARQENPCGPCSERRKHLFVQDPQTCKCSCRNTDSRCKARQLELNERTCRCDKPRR
In words: Immunohistochemistry on guinea pig line 10 tumor sections. It is filed as binding. Details: key: −, negative; +/−, very weak; 1+, weak; 2+, moderate; 3+, strong; 4+, very strong. As to conditions: acetone fixed frozen sections; 2C3 and 12D7 at 20 μg/ml, others 5-10 μg/ml. The procedure:
(§5) Guinea pig line 10 hepatocellular carcinoma tumor cells (obtained from Dr. Ronald Neuman, NIH, Bethesda, Md.) were grown in strain 2 guinea pigs (NCI, Bethesda, Md.). The human tumors NCI-H358 non-small cell lung carcinoma (NSCLC), NCI-H460 NSCLC (both obtained from Dr. Adi Gazdar, UT Southwestern, Dallas, Tex.), HT29 colon adenocarcinoma (American Type Culture Collection), and L540CY Hodgkin's lymphoma (obtained from Professor V. Diehl, Cologne, Germany) were grown as xenografts in CB17 SCID mice (Charles River, Wilmington, Mass.).
as §2

The subject of a further data set is VEGFR1 (FLT-1). Description: ELISA of VEGF binding to VEGFR1-coated wells.
The test system of data set [4] is mouse VEGF in mouse 3LL Lewis Lung carcinoma tumor sections. In words: Immunohistochemistry on mouse 3LL tumor sections. The format is binding. Details: key: −, negative; +/−, very weak; 1+, weak; 2+, moderate; 3+, strong; 4+, very strong. The conditions noted are these: acetone fixed frozen sections; 2C3 and 12D7 at 20 μg/ml, others 5-10 μg/ml. The method, then:
as §2, §3

The test system of data set [5] is Human tumor xenografts (NCI-H358 NSCLC, NCI-H460 NSCLC, HT29 colon adenocarcinoma, L540 Hodgkin's lymphoma). In words: Immunohistochemistry on frozen sections of human tumor xenografts. The format is binding, mouse. Details: key: −, negative; +/−, very weak; 1+, weak; 2+, moderate; 3+, strong; 4+, very strong. As to conditions: acetone fixed frozen sections; 2C3 and 12D7 at 20 μg/ml, others 5-10 μg/ml. The procedure: as §5, §2
The immunohistochemical reactivity of 3E7, GV39M, and 11B5 on NCI-H358 human NSCLC xenografts was determined and compared with control antibodies (an IgG of irrelevant specificity; A-20, a rabbit anti-VEGF antibody; and MECA 32, a rat anti-mouse endothelial cell antibody). 8 μm frozen sections of NCI-H358 human NSCLC grown in SCID mice were stained using an indirect immunoperoxidase technique and were counterstained with hematoxylin.

Data set [6] deals with human NCI-H358 NSCLC tumors. Description: Localization of 2C3-GUS in SCID mice bearing NCI-H358 tumors. It is filed as in vivo, mouse.
Data set [7] can be described thus: Blood clearance of radioiodinated 2C3-GUS in mice. It is filed as in vivo, mouse. As to conditions: intravenous. An excerpt:
2C3-GUS was radioiodinated with ^125I to a specific activity of 5×10^6 cpm/μg.

The next data set deals with VEGFR2 (KDR/Fc). Description: Coprecipitation assay, VEGF with VEGFR2/Fc. The conditions noted are these: 40 ng VEGF, 200 ng receptor/Fc. The format is binding. The procedure:
200 ng of soluble forms of VEGFR1 (Flt-1/Fc) or VEGFR2 (KDR/Fc, R&D Systems, Minneapolis, Minn.) were added for a total volume of 50 μl and incubated for 2 hrs. The receptor/Fc constructs were precipitated using Protein A-sepharose beads and the resulting precipitate was washed 4 times with binding buffer.
Reducing sample buffer was added to the pellet and supernatant of each reaction and both were analyzed by 12% SDS-PAGE and transferred to PVDF membranes. […] The soluble receptor/Fc constructs were also detected by using peroxidase-conjugated goat anti-human Fc (Kirkegaard & Perry Laboratories, Inc.)
The receptor/Fc constructs were precipitated by incubation with Protein A sepharose beads. The precipitate was washed and resuspended in reducing sample buffer and separated by 12% SDS-PAGE and transferred to PVDF.

Where [8] appears, read: tumor-bearing mice, antibody intravenously 24 hours prior to sacrifice.

mouse VEGF in mouse 3LL Lewis Lung carcinoma tumor sections, sequence (Q00731 205-317 limits assumed): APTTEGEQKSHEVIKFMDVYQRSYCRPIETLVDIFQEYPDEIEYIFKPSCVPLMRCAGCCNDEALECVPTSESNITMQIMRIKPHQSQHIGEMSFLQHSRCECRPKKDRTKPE

As for “2C3: anti-VEGF monoclonal antibody, IgG2a k, hybridoma ATCC PTA 1595; blocks VEGF binding to VEGFR2 but not VEGFR1 [Clone 2C3]”, the “Blocks VEGF from binding to VEGFR2” value with VEGFR2 (KDR/Flk-1) is recorded as “Yes”. Further, the “effect on VEGF binding to VEGFR2 in ELISA” value in the data set with VEGFR2 (KDR/Flk-1) (100-1000 fold excess) was “blocked”. Also, the “amount VEGF that bound to VEGFR2-coated ELISA wells maintained at” value in the data set with VEGFR2 (KDR/Flk-1) (100 fold molar excess over VEGF) is on record as “about 92%”. Further, in the data set with VEGFR2 (KDR/Flk-1) (1000-fold molar excess over VEGF (1 nM)), the “amount VEGF that bound to VEGFR2-coated wells, % of amount bound in absence of antibody” value is recorded as about 19%. Moreover, the “final tumor volume, NCI-H358 NSCLC” value in the data set on NCI-H358 NSCLC (100 μg i.p. 2 times per wk from day 1, nu/nu mice, controls approximately 1000 mm^3) is “approximately 150 mm^3”. The “prevention of tumor growth at lower doses” value with NCI-H358 NSCLC (10 or 1 μg twice per wk, NCI-H358 and A673) was “less effective”. In the data set with Human tumors (various), the “Endothelial Cell Staining Hu Tumor (various)” value is reported as “−”. For the same substance, in data set [1], the “growth of established A673 rhabdomyosarcoma and LS174T colon adenocarcinoma tumors” value was “significantly slowed”. In addition, in the data set on A673 rhabdomyosarcoma, the “final tumor volume, A673 rhabdomyosarcoma” value was “approximately 150 mm^3”. Further, the “blocking of 125I-VEGF binding to KDR” value in the data set with KDR on ABAE cells was “blocks VEGF from binding to KDR in a concentration dependent manner”. The “mean tumor volume after approximately 14 wk of treatment” value in the data set with NCI-H358 NSCLC tumors (established NCI-H358, 100 μg, prolonged treatment) was 84 mm^3. Further, in the data set on NCI-H358 NSCLC tumors (established NCI-H358, 50-100 μg i.p. every 3-5 days, approximately 10 weeks), the “mean tumor volume at the end of the study, % of the initial mean tumor volume” value came to 30%. Further, in the data set with NCI-H358 NSCLC tumors (established NCI-H358, approximately 14 wk), the “decrease in mean tumor volume” value was “approximately 80%”. The mean tumor weight in the data set with NCI-H358 NSCLC tumors (established NCI-H358, end of the study (day 116)) is recorded as 0.054 g. In addition, the “growth of HT1080 tumors” value in the data set on HT1080 fibrosarcoma is recorded as “arrested the growth”. Besides, the “Immunohistochemical Reactivity Tumor” value in data set [2] (2C3: NCI-H358 in nu/nu mice, 3E7, GV39M: HT29 in SCID mice, 24 hours after i.v.) was 3+. For the same substance, the “localization in the HT29 human tumor model” value in [2] (after i.v. injection) was “localized strongly to the connective tissue”. Also, in data set [2] (setting [8]), the “Immunohistochemical Reactivity Heart” value is “−”, the “Immunohistochemical Reactivity Intestine” value is recorded as “−”, the “Immunohistochemical Reactivity Kidney” value is “−” and the “Immunohistochemical Reactivity Liver” value is “−”. In data set [2] (setting [8]), the “Immunohistochemical Reactivity Lung” value is listed as “−” and the “Immunohistochemical Reactivity Spleen” value is “−”. For the same substance, in data set [3], the “Endothelial Cell Staining Guinea Pig Tumor (Line 10)” value is “−”. The “Blocks VEGF from binding to VEGFR1” value with VEGFR1 (FLT-1) is recorded as “No”. Moreover, the “Endothelial Cell Staining Mouse Tumor (3LL)” value in [4] was “−”. Further, the “Endothelial Cell Staining Xenograft (various)” value in data set [5] is given as “−”.

Turning to 2C3-GUS [Clone 2C3-GUS], in [6] (SCID mice, subcutaneous NCI-H358), the “localization after i.v. injection” value was “specifically localized to tumor vasculature and surrounding tumor stroma”. Besides, the “staining of normal tissues” value in [6] (mouse, in vivo, sc) is “unstained”. Also, in [7], the “t½ α of clearance from the blood” value was “about 6 hours” and the “t½ β of clearance from the blood” value was “about 25 hours”.

On to 2C3 F(ab′)2: F(ab′)2 of 2C3, for which, in the data set on VEGFR2 (KDR/Fc), the “blocking of binding of VEGF to VEGFR2/Fc in solution” value was “blocked”.
